The supplement of paper PMC8976852
± gives the standard deviation of the averaged measurements.

Legend:
Assay in all cases: activity (1 - area under the dose-response curve within the screened range) (fraction); higher = more sensitive
Conditions in all cases: treatment time: 72 h
HCM-SANG-0532-C20 = tested on: HCM-SANG-0532-C20 (colorectal cancer organoid)
Summary of the method: (§1)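 Following maintenance in 5% or 80% ECM (BME-2), patient-derived colorectal and oesophageal cancer organoids were seeded onto an ECM layer in 384-well plates and treated for 3 days with a 7-point half-log dilution series, with technical triplicates and biological duplicates. Fits from a non-linear mixed effects model with an RMSE greater than 0.3 were discarded. For each retained curve, activity was the complement of the area under the fitted curve over the screened dose range.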

HCM-SANG-0291-C15 = tested on: HCM-SANG-0291-C15 (oesophageal cancer organoid)
Summary of the method: as §1

HCM-SANG-0266-C20 = tested on: HCM-SANG-0266-C20 (colorectal cancer organoid)
Summary of the method: as §1

HCM-SANG-0270-C20 = tested on: HCM-SANG-0270-C20 (colorectal cancer organoid)
Summary of the method: as §1

[1] = ECM percentage in culture prior to screening 5 %
[2] = ECM percentage in culture prior to screening 80 %

SMILES	activity (HCM-SANG-0532-C20; [1])	activity (HCM-SANG-0532-C20; [2])	activity (HCM-SANG-0291-C15; [1])	activity (HCM-SANG-0291-C15; [2])	activity (HCM-SANG-0266-C20; [1])	activity (HCM-SANG-0266-C20; [2])	activity (HCM-SANG-0270-C20; [1])	activity (HCM-SANG-0270-C20; [2])
CNC(=O)c1ccccc1Sc1ccc2c(/C=C/c3ccccn3)n[nH]c2c1 [Axitinib]	0.112 ± 0.021	0.135 ± 0.035	0.0739 ± 0.021	0.056 ± 0.023	0.147 ± 0.033	0.143 ± 0.047	0.125 ± 0.03	0.109 ± 0.037
Nc1ccccc1NC(=O)c1ccc(CNC(=O)OCc2cccnc2)cc1 [Entinostat]	0.0795 ± 0.022	0.102 ± 0.025	0.124 ± 0.045	0.119 ± 0.047	0.0903 ± 0.02	0.0905 ± 0.023	0.0723 ± 0.025	0.0687 ± 0.041
COc1cccc2cc(-c3nc([C@H]4CC[C@H](C(=O)O)CC4)n4ncnc(N)c34)[nH]c12 [OSI-027]	0.0577 ± 0.024	0.0906 ± 0.013	0.0395 ± 0.012	0.032 ± 0.014	0.141 ± 0.054	0.0937 ± 0.059	0.0587 ± 0.034	0.0504 ± 0.036
CCc1cncnc1N1CCN(Cc2nc3ccc(C(F)(F)F)cc3[nH]2)CC1	0.222 ± 0.04	0.426 ± 0.041	0.0688 ± 0.038	0.0744 ± 0.019	0.206 ± 0.033	0.155 ± 0.029	0.127 ± 0.026	0.162 ± 0.031
Cn1ncnc1[C@H]1c2n[nH]c(=O)c3cc(F)cc(c23)N[C@@H]1c1ccc(F)cc1 [Talazoparib]	0.0688 ± 0.05	0.0443 ± 0.014	0.249 ± 0.036	0.275 ± 0.045	0.0908 ± 0.022	0.0937 ± 0.043	0.0426 ± 0.031	0.0374 ± 0.026
CC1(C)CCC(CN2CCN(c3ccc(C(=O)NS(=O)(=O)c4ccc(NCC5CCOCC5)c([N+](=O)[O-])c4)c(Oc4cnc5[nH]ccc5c4)c3)CC2)=C(c2ccc(Cl)cc2)C1 [Venetoclax]	0.0233 ± 0.0047	0.0331 ± 0.0083	0.0236 ± 0.007	0.0311 ± 0.022	0.0407 ± 0.02	0.0384 ± 0.018	0.0303 ± 0.0092	0.0357 ± 0.029
CNC(=O)c1cc(Oc2ccc(NC(=O)Nc3ccc(Cl)c(C(F)(F)F)c3)cc2)ccn1 [Sorafenib]	0.0823 ± 0.0072	0.123 ± 0.033	0.0375 ± 0.016	0.0266 ± 0.009	0.122 ± 0.014	0.106 ± 0.013	0.0957 ± 0.011	0.102 ± 0.068
